Laboratory results published in PubChem BioAssay AID2305 (GlaxoSmithKline (GSK), 2010).

Each molecule was assayed on P. falciparum 3D7 growth, pLDH absorbance (assay: blood-stage malaria parasite growth potency – strain 3D7, dose response (AID 2305)).
Work on `CC[C@H]1CN2CC[C@H]1C[C@H]2[C@H](O)c1cc(-c2cccc(C)c2)nc2ccc(OC)cc12` yielded an IC50 of 160 nM.
`O=C1c2ccccc2C(=O)N1c1ccc(S(=O)(=O)N2CCOCC2)cc1` was tested, and the IC50 was 1260 nM.
`NC1CCN(Cc2cccc(-c3csc(-c4nc5ccccc5[nH]4)c3)c2)C1` (centres undefined) gave an IC50 of 890 nM.
`COc1ccc(Nc2nc(NN=Cc3ccc(-c4ccc([N+](=O)[O-])cc4)o3)nc(Nc3ccccc3)n2)cc1` showed an IC50 of 760 nM.
`COC(=O)c1ccc(OCC(O)CO)cc1O` (centres undefined) was tested, and the IC50 was 740 nM.
`COc1cc(Nc2ccnc3cc(-c4ccccn4)ccc23)cc(OC)c1OC` was tested, and the IC50 was 910 nM.
`O=C(Nc1cccc(C(F)(F)F)c1)N1CCOC(CCN2CCC3(CCc4ccccc43)CC2)(c2ccc(Cl)c(Cl)c2)C1` (centres undefined) was tested, and the IC50 was 740 nM.
Work on `COc1ccc2nccc([C@@H](O)CN3CCC(NCc4ccc5scnc5c4)CC3)c2c1` yielded an IC50 of 400 nM.
Work on `O=C(Nc1ccccc1)N(Cc1cccc(-c2cccc(CNCc3ccc4c(c3)OCO4)c2)c1)C1CCN(Cc2ccccc2)CC1` yielded an IC50 of 280 nM.
`Cc1cc(NCCCCCCCCNc2cc(C)nc3ccccc23)c2ccccc2n1` showed an IC50 of 990 nM.
With `Cc1ccc2c(OCCN3CCC(Cc4cc5c(cc4F)OCC(=O)N5)CC3)cc(F)cc2n1` the IC50 was 630 nM.
Work on `CC(C)Oc1cccc(-c2ccc(C(=O)NCC3CCCN(Cc4cccc(C(F)(F)F)c4)C3)s2)c1` (centres undefined) yielded an IC50 of 1080 nM.
`Cc1ccc(NC(=S)N2CCCN(CCCCCNC(=O)/C=C/c3ccc(Cl)c(Cl)c3)CC2)cc1Cl` gave an IC50 of 920 nM.
`O=C(NC1CCC(CN2CCC(c3c[nH]c4ccccc34)CC2)CC1)c1cc(-c2cccc(Cl)c2)n(-c2ccc(Cl)cc2Cl)n1` (centres undefined) was tested, and the IC50 was 1080 nM.
For `Cc1cc(C)cc(Oc2c(C(F)(F)F)oc3c(CN4CC(C)OC(C)C4)c(O)ccc3c2=O)c1` (centres undefined), the IC50 was 940 nM.
Work on `CCOC(=O)c1c(SCc2cccc(F)c2F)[nH]c2ccccc2c1=O` yielded an IC50 of 640 nM.
For `COc1ccc(-c2cnc3ccc(NCc4ccc(F)cc4)nn23)cc1OC`, the IC50 was 830 nM.
`CC(C)CCCC(C)(C)NC[C@@H](O)[C@H](Cc1ccccc1)NC(=O)c1cc(NC(C)C)cc(N2CCCCS2(=O)=O)c1F` gave an IC50 of 220 nM.
With `Fc1ccc(-c2csc3ncnc(Cl)c23)cc1` the IC50 was 330 nM.
With `c1ccc2ncc(CNCCCCCCCCNCc3cnc4ccccc4c3)cc2c1` the IC50 was 850 nM.
For `O=C1COc2ccc(S(=O)(=O)N3CCC[C@@H]3CCN3CCC(c4c[nH]c5cnccc45)CC3)cc2N1`, the IC50 was 860 nM.
Molecule `COc1c(C2CCN(CCCCNC(=O)c3ccc(-c4ccc(C(=O)C(F)(F)F)cc4)cc3)CC2)ccc2c1CCCC2` has an IC50 of 1100 nM.
`CC(C(=O)OCCOCn1cnc2c(=O)[nH]c(N)nc21)N(C)C(=O)OC(C)(C)C` (centres undefined) gave an IC50 of 1000 nM.
With `CCN(CC)CCCOC(=O)c1ccc2c(c1)-c1ccc(C(=O)OCCCN(CC)CC)c3cccc-2c13` the IC50 was 930 nM.
`Cc1cc(NN=Cc2ccccc2[N+](=O)[O-])c2ccc(F)cc2n1` showed an IC50 of 350 nM.
Work on `COc1cc2c(cc1C(F)(F)F)N(C(=O)Nc1cccc(-c3ccc(CN(C)C)cc3)c1)CC2` yielded an IC50 of 710 nM.
Molecule `N#Cc1ccc(N2CCN(Cc3ccc(-c4cccc(-c5nc6ccccc6[nH]5)c4)cc3)CC2)nc1` has an IC50 of 910 nM.
Work on `Oc1ccc(CCCNc2nc(NCc3ccccc3-c3ccccc3)nc(N3CCNCC3)n2)cc1` yielded an IC50 of 710 nM.
Work on `Cc1ccc(OCCCCONC(=O)c2ccccc2)cc1` yielded an IC50 of 150 nM.
`CCNc1cc(C)nc(Nc2ccc(C)cc2)n1` gave an IC50 of 730 nM.
For `CC[C@H](NC(=O)c1c(CCCN2CCN(c3ccccc3)CC2)c(-c2ccccc2)nc2cc(O)ccc12)c1ccccc1`, the IC50 was 780 nM.
Molecule `COc1ccc(Nc2ccnc3cc(-c4ccccn4)ccc23)cc1OC` has an IC50 of 30 nM.
With `O=C(Nc1cc(C(F)(F)F)cc(C(F)(F)F)c1)c1cc(Cl)ccc1O` the IC50 was 1310 nM.
`COc1ccc2nccc(N3CCC(O)(CCNCc4ccc5c(n4)NC(=O)CS5)CC3)c2n1` showed an IC50 of 650 nM.
For `COc1cccc(-c2cnc(N)c(-c3nc4ccc(F)cc4[nH]3)c2)c1`, the IC50 was 850 nM.
`Cc1ccc(-c2nnc(Nc3ccc(OCC(N)=O)cc3)c3ccccc23)cc1S(=O)(=O)NCC1CCCO1` (centres undefined) gave an IC50 of 750 nM.
`Cc1nnsc1C(=O)Nc1ccc(-c2ccc(-c3nc4ccccc4[nH]3)s2)cc1` showed an IC50 of 820 nM.
`N#Cc1ccc(N2CCN(Cc3ccc(-c4ccc(-c5nc6ccccc6[nH]5)s4)cc3)CC2)nc1` gave an IC50 of 1080 nM.
In the case of `CCN1CCN(c2cc(C)c3cc(NC(=O)c4ccc(Br)o4)ccc3n2)CC1`, the IC50 is reported as 750 nM.
Molecule `CN1CCN(c2ccnc3ccc(NC(=O)Nc4ccc(Cl)c(Cl)c4)cc23)CC1` has an IC50 of 880 nM.
For `CC(C)C(C(=O)n1cc2c(ccc3nc(N)nc(N)c32)n1)C(C)C`, the IC50 was 790 nM.
Molecule `Nc1cccc(CNCc2ccc(-c3ccc(-c4nc5ccccc5[nH]4)s3)cc2)c1` has an IC50 of 570 nM.
With `CCCC[C@H](NC(=O)O[C@H](COc1ccc(OCc2ccccc2)cc1)C(C)(C)C)C(=O)C(=O)Nc1ccn[nH]1` the IC50 was 990 nM.
`CCN(CC)CCN(CCCc1ccc(-c2ccc(C(F)(F)F)cc2)cc1)C(=O)Cn1c(CCc2cccc(F)c2F)nc(=O)c2c1CCC2` gave an IC50 of 830 nM.
For `Cc1cc(NC(=O)Nc2ccc(N(C)C)cc2)c2cc(Cl)ccc2n1`, the IC50 was 860 nM.
For `NC1(C(=O)O)Cc2ccc(Cl)cc2C1` (centres undefined), the IC50 was 730 nM.
`CN(C)c1cccc2c1nc(-c1ccc3c(c1)CCO3)n2CCNCc1ccccc1` was tested, and the IC50 was 730 nM.
With `O=C(/C=C/c1ccc(CNCCN2CCOCC2)cc1)NCCc1ccccc1` the IC50 was 860 nM.
With `COc1cc(CCNC(=O)Cc2ccc3ccccc3c2)ccc1OCc1ccccc1` the IC50 was 1020 nM.
